Patent publication US20050222186A1, “Substituted diaminopyrimidines” (Altana Pharma AG, priority 2002, published 2005)
pIC50: −log10 of the molar value.

How the values were obtained:
[1] = target: recombinant human PKC-θ enzyme (Homo sapiens, UniProt Q04759); experiment: Protein Kinase C-θ assay (SPA, 33P-ATP phosphorylation of biotinylated substrate peptide); type: biochemical; conditions: 1 μM ATP, 40 min at room temperature, 1% DMSO, read-out: Inhibition of PKC-θ activity [measured as IC50 (μmol/l)]
Sequence of recombinant human PKC-θ enzyme (Q04759 whole entry): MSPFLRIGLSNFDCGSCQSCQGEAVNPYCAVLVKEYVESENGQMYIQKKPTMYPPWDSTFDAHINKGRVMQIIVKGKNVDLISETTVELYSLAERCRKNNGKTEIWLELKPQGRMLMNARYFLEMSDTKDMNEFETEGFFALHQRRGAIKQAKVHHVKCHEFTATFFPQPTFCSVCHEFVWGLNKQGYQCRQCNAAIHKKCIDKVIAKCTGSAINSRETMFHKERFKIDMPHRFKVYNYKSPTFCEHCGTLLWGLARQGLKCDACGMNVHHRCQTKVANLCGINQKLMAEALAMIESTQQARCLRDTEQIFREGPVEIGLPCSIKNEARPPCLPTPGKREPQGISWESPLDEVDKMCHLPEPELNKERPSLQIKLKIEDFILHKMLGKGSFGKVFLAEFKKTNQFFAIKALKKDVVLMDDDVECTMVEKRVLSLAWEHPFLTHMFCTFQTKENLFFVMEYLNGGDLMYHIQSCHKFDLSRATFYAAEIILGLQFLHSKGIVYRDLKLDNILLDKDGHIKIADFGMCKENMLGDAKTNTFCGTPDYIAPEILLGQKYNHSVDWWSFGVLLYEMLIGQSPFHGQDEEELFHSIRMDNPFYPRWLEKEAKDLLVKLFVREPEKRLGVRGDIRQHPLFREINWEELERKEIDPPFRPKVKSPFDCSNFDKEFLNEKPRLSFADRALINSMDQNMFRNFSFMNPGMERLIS
Experimental: The compounds of formula 1 were tested for their activity on PKC-θ according to the following method. The assay was performed in 96 well microtiter plates (Perkin Elmer Wallac) at a final assay volume of 200 μl. The reaction mixture (50 μl) contained 10 μl of recombinant human PKC-θ enzyme together with 5 μl of the test compound and 3 μM biotinylated PKC-θ substrate peptide (Biotin-RKRQRSMRRRVHOH), 160 μM phosphatidylserine, 0.3 mg/ml BSA, 1 μM ATP and 2 μCi of ^33γ-ATP (Amersham) in 40 mM Tris-buffer pH 7.4. Incubation was performed for 40 min at room temperature. The reaction was stopped by adding 150 μl of a mixture containing 10 mM ATP and 1.33 mg/ml streptavidin coated yttrium silicate SPA beads (Amersham). Incorporated radioactivity (cpm) was measured for 2 min in a radioactivity counter (Wallac MicroBeta JET). […] IC50 values for inhibition of PKC-θ were calculated from the concentration-inhibition curves by nonlinear-regression.

CD4+ lymphocytes = experiment: CD4+ proliferation assay (αCD3/αCD28 stimulation, 3H-methylthymidin incorporation); type: cell-based; conditions: Lymphocyte, αCD3/αCD28 stimulated CD4+ lymphocytes, 48 h incubation, read-out: Inhibition of CD4+ cell proliferation [measured as IC50 (μmol/l)]
Experimental: (§1) CD4+ lymphocytes were purified as described by Hatzelmann and Schudt (J Pharmacol Exp Ther 297: 267-279) and resuspended in assay medium (RPMI 1640/10% fetal calf serum (FCS) containing 2 mM Glutamine, 1% sodiumpyruvate, 1% non-essential amino acids and 1% penicillin/streptomycin) at a density of 1×10^6 cells/ml. 96 well plates were coated with αCD3 antibodies (0.3 μg/well; Ortho-clone OKT-3, Jansen-Cilag) for 2.5 h at 37° C. in 5% CO2 and then washed twice with PBS (200 μl/well). Prior to plating of the cells (200 μl, 2×10^5 cells) the compounds of formula 1 dissolved in 2% DMSO were added to the antibody-coated plates at the desired concentrations. Following a preincubation period of 30 min at 37° C. and 5% CO2 10 μl of αCD28 antibody (3 μg/ml, Beckman) were added and incubation continued for 48 h at 37° C. and 5% CO2. 18 h prior to cell harvest 10 μl of ^3H-methylthymidin (0.2 μCi, Amersham) were added. After 48 h total incubation time the cells were lysed using deionized water and radiolabeled DNA was immobilized on 96 well filter plates using a Tomtec device. The plates were dried at 60° C. for 1 h and overlayed with 40 μl Microscint-O (Packard) before counting in a Topcount radioactivity counter (Packard). Calculation of IC50 values was performed as described above.

CD4+ T lymphocytes = experiment: CD4+ IL-2 secretion assay (ELISA of supernatants); type: cell-based; conditions: αCD3/αCD28 stimulated CD4+ T lymphocytes, 48 h incubation, IL-2 in supernatants by ELISA; read-out: Inhibition of IL-2 secretion in CD4+ cell [measured as IC50 (μmol/l)]
Experimental: as §1
CD4+ T lymphocytes were stimulated and treated with compounds of formula 1 as described above for the CD4+ proliferation assay. Following a 48 h incubation period IL-2 levels in the supernatants (50 μl/well) were determined by ELISA (Beckman Coulter). Calculation of IC50 values was performed as described above.

| Compound | pIC50 [1] | pIC50 (CD4+ T lymphocytes) | pIC50 (CD4+ lymphocytes) |
| --- | --- | --- | --- |
| c1ccc(CN2CCC(Nc3nc(NCc4ccccn4)ncc3-c3ccsc3)CC2)cc1 [Example 1, [1-Benzyl(4-piperidyl)]{2-[(2-pyridylmethyl)amino]-5-(3-thienyl)pyrimidin-4-yl}amine] | > 5.40 | > 5.40 | > 5.40 |
| NC(=O)c1ccc(-c2cnc(NCc3ccncc3)nc2NC2CCN(Cc3ccccc3)CC2)cc1 [Example 6, {5-(Phenyl-4-carboxamido)-2-[(4-pyridylmethyl)amino)pyrimidin-4-yl}[1-benzyl(4-piperidyl)]-amine] |  | > 5.40 |  |
| c1ccc(CN2CCC(Nc3nc(NCc4ccccn4)ncc3-c3ccco3)CC2)cc1 [Example 12, {5-(2-Furanyl)-2-[(2-pyridylmethyl)amino)pyrimidin-4-yl}[1-benzyl(4-piperidyl)]amine] | > 5.40 | > 5.40 |  |
| c1ccc(CN2CCC(Nc3nc(NCc4ccccn4)ncc3-c3cccs3)CC2)cc1 [Example 14, {5-(2-Thienyl)-2-[(2-pyridylmethyl)amino)pyrimidin-4-yl}[1-benzyl(4-piperidyl)]amine] | > 5.40 | > 5.40 | > 5.40 |
| CC(=O)c1ccc(-c2cnc(NCc3ccccn3)nc2NC2CCN(Cc3ccccc3)CC2)cc1 [Example 21] | > 5.40 |  |  |
| CC(=O)c1cccc(-c2cnc(NCc3ccccn3)nc2NC2CCN(Cc3ccccc3)CC2)c1 [Example 22, 1-(3-[4-(1-Benzyl-piperidinylamino)-2-[(pyridin-2-ylmethyl)-amino]-pyrimidin-5-yl}phenyl)-ethanone] | > 5.40 |  |  |

Further lines, with some results ahead:

| pIC50 [1] | pIC50 (CD4+ T lymphocytes) | Compound | pIC50 (CD4+ lymphocytes) |
| --- | --- | --- | --- |
|  | > 5.40 | c1ccc(CN2CCC(Nc3nc(NCc4ccncc4)ncc3-c3cccs3)CC2)cc1 [Example 8, {5-(2-Thienyl)-2-[(4-pyridylmethyl)amino)pyrimidin-4-yl}[1-benzyl(4-piperidyl)]amine] | > 5.40 |
| > 5.40 | > 5.40 | c1ccc(CN2CCC(Nc3nc(NCc4ccccn4)ncc3-c3ccoc3)CC2)cc1 [Example 13, {5-(3-Furanyl)-2-[(2-pyridylmethyl)amino)pyrimidin-4-yl}[1-benzyl(4-piperidyl)]amine] |  |
| > 5.40 | > 5.40 | NC(=O)c1ccc(-c2cnc(NCc3ccccn3)nc2NC2CCN(Cc3ccccc3)CC2)cc1 [Example 15] | > 5.40 |
